US10513521B2, “Compositions and methods for inhibiting BMP” (The Brigham and Women's Hospital, Inc., priority 2014, dated 2019)
Where a chain is given by its changes, count along the chain named. Where two headings read alike, the source gives them in different places.

Experiments:
ALK1 = ALK1 (Homo sapiens, UniProt P37023); assay: TR-FRET enzymatic ALK kinase assay, ALK1
Experimental: (§1) Briefly, the ALKs enzymatic assay was initiated by dispense 2.5 μl enzyme in 1× kinase reaction buffer. The assay plate was then added with compounds followed by incubation at room temperature for 10 minutes. Then 2.5 μl/well substrate was added.

ALK6 = ALK6 (Homo sapiens, UniProt O00238); assay: TR-FRET enzymatic ALK kinase assay, ALK6
Experimental: as §1

ALK3 = ALK3 (Homo sapiens, UniProt P36894); assay: TR-FRET enzymatic ALK kinase assay, ALK3
Sequence of ALK3 (P36894 24-532): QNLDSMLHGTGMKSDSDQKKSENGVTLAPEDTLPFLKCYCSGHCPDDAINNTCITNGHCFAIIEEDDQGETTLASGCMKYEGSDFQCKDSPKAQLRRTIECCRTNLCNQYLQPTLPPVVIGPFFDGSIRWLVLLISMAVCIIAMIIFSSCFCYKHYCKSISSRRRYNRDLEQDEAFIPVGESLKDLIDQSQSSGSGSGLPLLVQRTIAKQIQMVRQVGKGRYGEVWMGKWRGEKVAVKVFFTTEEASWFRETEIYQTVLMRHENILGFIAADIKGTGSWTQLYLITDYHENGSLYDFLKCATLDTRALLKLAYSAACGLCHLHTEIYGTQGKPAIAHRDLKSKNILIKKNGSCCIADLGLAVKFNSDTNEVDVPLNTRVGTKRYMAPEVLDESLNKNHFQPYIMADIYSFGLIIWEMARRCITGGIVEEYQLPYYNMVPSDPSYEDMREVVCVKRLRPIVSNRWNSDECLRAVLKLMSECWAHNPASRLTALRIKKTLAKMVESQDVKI
Experimental: as §1

ALK2 [1] = target: T1, ALK2 (Mus musculus, UniProt P37172); assay: HTRF pSMAD1 cell-based ALK2 assay (C2C12 cells, BMP6 as agonist); settings: BMP6
T1 construct: The C2C12 cell line was selected for the measurement of ALK2 activity using BMP6 as the agonist; host or cells: C2C12
T1 sequence (P37172 21-509): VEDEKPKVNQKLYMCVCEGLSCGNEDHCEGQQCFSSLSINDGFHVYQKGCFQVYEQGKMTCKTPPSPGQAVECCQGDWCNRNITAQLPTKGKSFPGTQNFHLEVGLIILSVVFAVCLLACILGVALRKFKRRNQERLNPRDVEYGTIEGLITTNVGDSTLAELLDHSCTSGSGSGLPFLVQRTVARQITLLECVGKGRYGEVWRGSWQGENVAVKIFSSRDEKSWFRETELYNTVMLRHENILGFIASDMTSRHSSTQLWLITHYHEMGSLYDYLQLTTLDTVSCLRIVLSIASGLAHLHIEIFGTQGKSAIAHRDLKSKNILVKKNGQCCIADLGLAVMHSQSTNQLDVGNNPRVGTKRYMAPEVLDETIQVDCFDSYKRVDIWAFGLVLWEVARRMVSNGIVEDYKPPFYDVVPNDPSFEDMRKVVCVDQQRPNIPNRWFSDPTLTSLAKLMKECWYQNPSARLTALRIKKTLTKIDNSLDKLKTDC
Experimental: 2. HTRF Cell-Based ALK1 and ALK2 Assays in 384-Well Plate Format We have developed a cell based ALK1 kinase assay and a cell-based ALK2 assay. The BAOEC cell line was employed for the measurement of ALK1 activity using BMP9 as the agonist. The C2C12 cell line was selected for the measurement of ALK2 activity using BMP6 as the agonist. The kinase specificity was defined by the specific cell line and agonist. The kinase activity was determined by the status of SMD 1/5/8 phosphorylation stimulated by the agonist.
HyClone Fetal Bovine Serum was obtained from GE healthcare life sciences (Logan, Utah). BMP6 and BMP9 were purchased from R&D System. […] The compound plates and the white solid MB assay plates were purchased from Greiner Bio-one (Monroe, N.C.).
HTRF optimization experiments were performed in 384 well plate format. […] Pre-starved cells were then plated in 384 well plate in the starvation medium (containing in 0.1% FBS). After 4 hours, compounds were added to the assay plate and incubated for 30 minutes. The assay plate was then added with BMP6 for C2C12 cells or BMP9 for BAOEC cells and incubated for 30 minutes.
HTRF assay was performed to measure the status of SMAD 1 phosphorylation after stimulated with the agonist (Table 3). This HTRF phospho SMAD1 cell assay was developed and optimized for the homogenous detection of phospho SMAD 1 levels in cells. […] The plate was incubated at room temperature for overnight.

ALK5 = target: T2, ALK5 (Homo sapiens, UniProt P36897); assay: TR-FRET enzymatic ALK kinase assay, ALK5
T2 sequence (P36897 34-503): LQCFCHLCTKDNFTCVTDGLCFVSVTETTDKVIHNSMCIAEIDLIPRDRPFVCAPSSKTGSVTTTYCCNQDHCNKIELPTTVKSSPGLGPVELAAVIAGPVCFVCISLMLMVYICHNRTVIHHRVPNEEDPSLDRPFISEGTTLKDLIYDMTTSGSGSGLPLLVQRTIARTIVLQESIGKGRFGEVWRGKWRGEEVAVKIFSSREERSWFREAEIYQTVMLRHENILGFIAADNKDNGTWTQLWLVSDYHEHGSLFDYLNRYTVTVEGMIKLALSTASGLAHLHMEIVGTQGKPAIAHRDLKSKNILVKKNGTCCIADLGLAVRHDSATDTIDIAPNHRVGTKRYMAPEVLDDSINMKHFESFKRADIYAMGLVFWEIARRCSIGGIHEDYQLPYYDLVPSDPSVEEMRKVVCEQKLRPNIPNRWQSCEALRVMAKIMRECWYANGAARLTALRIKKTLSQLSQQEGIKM
Experimental: Six ALK kinase enzyme assays were developed for determination of compound activities on ALK1, ALK2, ALK3, ALK4, ALK5 and ALK6.
as §1

ALK2 [2] = target: T3, ALK2 (Homo sapiens, UniProt Q04771); assay: TR-FRET enzymatic ALK kinase assay, ALK2
T3 sequence (Q04771 21-509): T1 sequence (P37172 21-509) with V1M, Q10P, I121L, E162D, S310P
Experimental: as §1

ALK4 = target: T4, ALK4 (Homo sapiens, UniProt P36896); assay: TR-FRET enzymatic ALK kinase assay, ALK4
T4 sequence (P36896 24-505): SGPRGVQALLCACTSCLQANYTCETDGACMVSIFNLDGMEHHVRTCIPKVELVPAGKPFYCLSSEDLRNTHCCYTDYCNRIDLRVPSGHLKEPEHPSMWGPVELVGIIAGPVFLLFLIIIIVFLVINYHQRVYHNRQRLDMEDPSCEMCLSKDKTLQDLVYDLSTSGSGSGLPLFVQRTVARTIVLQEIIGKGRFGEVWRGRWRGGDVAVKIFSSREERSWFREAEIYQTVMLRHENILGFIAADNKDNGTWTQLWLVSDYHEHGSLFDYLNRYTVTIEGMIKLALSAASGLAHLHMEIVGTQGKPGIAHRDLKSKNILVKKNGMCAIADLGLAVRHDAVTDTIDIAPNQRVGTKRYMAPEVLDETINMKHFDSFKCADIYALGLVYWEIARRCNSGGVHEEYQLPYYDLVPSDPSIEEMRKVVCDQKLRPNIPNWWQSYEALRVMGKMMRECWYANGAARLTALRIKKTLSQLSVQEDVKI
Experimental: as §1

[3] = cell-based assay, read-out: Cell IC50 BMP6
[4] = Cell IC50 BMP6, cell-based assay

Sequence of ALK1 (P37023 22-503): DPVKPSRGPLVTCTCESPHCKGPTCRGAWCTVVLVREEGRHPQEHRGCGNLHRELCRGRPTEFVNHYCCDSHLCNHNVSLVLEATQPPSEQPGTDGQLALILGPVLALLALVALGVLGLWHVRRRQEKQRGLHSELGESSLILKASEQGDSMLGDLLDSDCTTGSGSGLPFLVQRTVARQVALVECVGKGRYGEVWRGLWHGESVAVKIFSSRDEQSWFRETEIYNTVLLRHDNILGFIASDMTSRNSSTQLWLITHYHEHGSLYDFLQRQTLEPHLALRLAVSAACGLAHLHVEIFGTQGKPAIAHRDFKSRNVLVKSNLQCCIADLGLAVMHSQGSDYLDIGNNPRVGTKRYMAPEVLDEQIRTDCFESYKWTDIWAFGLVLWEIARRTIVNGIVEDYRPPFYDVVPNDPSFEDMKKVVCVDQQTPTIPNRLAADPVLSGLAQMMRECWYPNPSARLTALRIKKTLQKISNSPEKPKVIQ
Sequence of ALK6 (O00238 14-502): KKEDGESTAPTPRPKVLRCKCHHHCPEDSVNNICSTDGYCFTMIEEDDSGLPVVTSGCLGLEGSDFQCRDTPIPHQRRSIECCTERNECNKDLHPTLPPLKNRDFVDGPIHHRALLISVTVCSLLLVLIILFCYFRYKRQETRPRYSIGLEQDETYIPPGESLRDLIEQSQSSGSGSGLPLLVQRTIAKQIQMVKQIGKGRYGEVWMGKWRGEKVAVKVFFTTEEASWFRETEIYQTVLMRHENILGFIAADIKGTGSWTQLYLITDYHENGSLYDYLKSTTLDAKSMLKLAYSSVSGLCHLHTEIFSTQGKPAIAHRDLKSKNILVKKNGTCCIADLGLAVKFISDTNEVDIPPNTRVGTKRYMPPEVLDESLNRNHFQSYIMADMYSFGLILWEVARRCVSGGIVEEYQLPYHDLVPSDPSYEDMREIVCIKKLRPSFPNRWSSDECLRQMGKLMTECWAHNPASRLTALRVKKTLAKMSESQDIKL

C[C@@H]1CNC[C@H](C)N1c1ccc(-c2cnc3c(-c4ccc(Cl)c5ccccc45)cnn3c2)cc1 [Compound 44, 3-(4-chloronaphthalen-1-yl)-6-(4-((2R,6S)-2,6-dimethylpiperazin-1-yl)phenyl)pyrazolo[1,5-a]pyrimidine]
IC50 (ALK1): 0.39 µM | IC50 (ALK6): > 10 µM | IC50 (ALK3): 2 µM | IC50 (ALK2 [1]; [3]): 5.5 µM | IC50 (ALK5): > 10 µM | IC50 (ALK2 [2]): 0.13 µM | IC50 (ALK4): > 10 µM

C[C@@H]1CNC[C@H](C)N1c1ccc(-c2cnc3c(-c4ccc(S(=O)(=O)C(F)(F)F)cc4)cnn3c2)cc1 [Compound 45, 6-(4-((2R,6S)-2,6-dimethylpiperazin-1-yl)phenyl)-3-(4-((trifluoromethyl)sulfonyl)phenyl)pyrazolo[1,5-a]pyrimidine]
IC50 (ALK1): > 10 µM | IC50 (ALK6): > 10 µM | IC50 (ALK3): > 10 µM | IC50 (ALK2 [1]; [3]): 9.16 µM | IC50 (ALK5): > 10 µM | IC50 (ALK2 [2]): > 10 µM | IC50 (ALK4): > 10 µM

CN1CCN(c2ccc(-c3cnc4c(-c5ccc(S(N)(=O)=O)c6ccccc56)cnn4c3)cn2)CC1 [Compound 48, 4-(6-(6-(4-methylpiperazin-1-yl)pyridin-3-yl)pyrazolo[1,5-a]pyrimidin-3-yl)naphthalene-1-sulfonamide]
IC50 (ALK1): 3.9 µM | IC50 (ALK6): > 10 µM | IC50 (ALK3): > 10 µM | IC50 (ALK2 [1]; [3]): 12 µM | IC50 (ALK5): > 10 µM | IC50 (ALK2 [2]): 0.56 µM | IC50 (ALK4): > 10 µM

NS(=O)(=O)c1ccc(-c2cnn3cc(-c4ccc(N5CCNCC5)nc4)cnc23)c2ccccc12 [Compound 49, 4-(6-(6-(piperazin-1-yl)pyridin-3-yl)pyrazolo[1,5-a]pyrimidin-3-yl)naphthalene-1-sulfonamide]
IC50 (ALK1): 1.7 µM | IC50 (ALK6): > 10 µM | IC50 (ALK2 [1]; [4]): 0.316 µM | IC50 (ALK5): > 10 µM | IC50 (ALK4): > 10 µM

CC(C)(CN1CCCCC1)Oc1ccc(-c2cnc3c(-c4ccc(S(N)(=O)=O)c5ccccc45)cnn3c2)cc1 [Compound 52, 4-(6-(4-((2-methyl-1-(piperidin-1-yl)propan-2-yl)oxy)phenyl)pyrazolo[1,5-a]pyrimidin-3-yl)naphthalene-1-sulfonamide]
IC50 (ALK1): 0.17 µM | IC50 (ALK6): > 10 µM | IC50 (ALK2 [1]; [4]): 0.008 µM | IC50 (ALK5): > 10 µM | IC50 (ALK4): > 10 µM

C[C@@H]1CNC[C@H](C)N1c1ccc(-c2cnc3c(-c4ccc([S+](N)(=O)[O-])c(C(F)(F)F)c4)cnn3c2)cc1 [Compound 53, 4-(6-(4-((2R,6S)-2,6-dimethylpiperazin-1-yl)phenyl)pyrazolo[1,5-a]pyrimidin-3-yl)-2-(trifluoromethyl)benzenesulfonamide]
IC50 (ALK1): 2.9 µM | IC50 (ALK6): > 10 µM | IC50 (ALK3): > 10 µM | IC50 (ALK2 [1]; [3]): 0.316 µM | IC50 (ALK5): > 10 µM | IC50 (ALK2 [2]): 0.38 µM | IC50 (ALK4): > 10 µM

C[C@@H]1CNC[C@H](C)N1c1ccc(-c2cnc3c(-c4ccc(S(N)(=O)=O)c(N)c4)cnn3c2)cc1 [Compound 57, 2-amino-4-(6-(4-((2R,6S)-2,6-dimethylpiperazin-1-yl)phenyl)pyrazolo[1,5-a]pyrimidin-3-yl)benzenesulfonamide]
IC50 (ALK1): 0.76 µM | IC50 (ALK6): > 10 µM | IC50 (ALK2 [1]; [3]): 0.75 µM | IC50 (ALK5): > 10 µM | IC50 (ALK4): > 10 µM

C[C@@H]1CNC[C@H](C)N1c1ccc(-c2cnc3c(-c4cccc(S(N)(=O)=O)c4)cnn3c2)cc1 [Compound 60, 3-(6-(4-((2R,6S)-2,6-dimethylpiperazin-1-yl)phenyl)pyrazolo[1,5-a]pyrimidin-3-yl)benzenesulfonamide]
IC50 (ALK1): 0.21 µM | IC50 (ALK6): > 10 µM | IC50 (ALK2 [1]; [3]): 0.609 µM | IC50 (ALK5): > 10 µM | IC50 (ALK4): > 10 µM

CS(=O)(=O)c1cccc(-c2cnn3cc(-c4ccc(OCCn5ccnc5)cc4)cnc23)c1 [Compound 102, 6-(4-(2-(1H-imidazol-1-yl)ethoxy)phenyl)-3-(3-(methylsulfonyl)phenyl)pyrazolo[1,5-a]pyrimidine]
IC50 (ALK2 [1]; [3]): 0.225 µM
